{"source": "patent US8703961B2", "about": "“Thiazole derivatives for the treatment of diseases such as cancer” (Merck Patent GmbH, priority 2009, dated 2014)", "test_in_all_cases": "filter binding kinase assay", "type_in_all_cases": "biochemical", "key": {"AURKB": {"target": "T1, AURKB (Homo sapiens, UniProt Q96GD4)", "T1 construct": "purchased", "T1 sequence (Q96GD4 whole entry, species assumed)": "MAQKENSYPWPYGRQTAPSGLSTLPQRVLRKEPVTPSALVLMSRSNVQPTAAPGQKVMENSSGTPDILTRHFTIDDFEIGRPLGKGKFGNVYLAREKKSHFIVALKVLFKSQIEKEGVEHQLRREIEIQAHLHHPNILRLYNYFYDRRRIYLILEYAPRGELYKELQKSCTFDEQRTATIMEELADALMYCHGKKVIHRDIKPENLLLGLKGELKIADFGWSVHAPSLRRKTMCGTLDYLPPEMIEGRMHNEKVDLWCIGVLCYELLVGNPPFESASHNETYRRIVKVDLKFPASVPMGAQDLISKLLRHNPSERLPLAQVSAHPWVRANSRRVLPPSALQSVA", "details": "derived from % inhibition at 1 μM", "procedure,_shortened": "(§1)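 Each reaction ran at ambient temperature following a five-minute compound preincubation, was started with ATP (5, 20 or 50 […] stock, per enzyme) and stopped with acid; substrate phosphorylation was read by scintillation counting of P81 filters.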"}, "BRSK2": {"target": "T2, BRSK2 (Homo sapiens, UniProt Q8IWQ3)", "T2 construct": "purchased", "T2 sequence (Q8IWQ3 1-736)": "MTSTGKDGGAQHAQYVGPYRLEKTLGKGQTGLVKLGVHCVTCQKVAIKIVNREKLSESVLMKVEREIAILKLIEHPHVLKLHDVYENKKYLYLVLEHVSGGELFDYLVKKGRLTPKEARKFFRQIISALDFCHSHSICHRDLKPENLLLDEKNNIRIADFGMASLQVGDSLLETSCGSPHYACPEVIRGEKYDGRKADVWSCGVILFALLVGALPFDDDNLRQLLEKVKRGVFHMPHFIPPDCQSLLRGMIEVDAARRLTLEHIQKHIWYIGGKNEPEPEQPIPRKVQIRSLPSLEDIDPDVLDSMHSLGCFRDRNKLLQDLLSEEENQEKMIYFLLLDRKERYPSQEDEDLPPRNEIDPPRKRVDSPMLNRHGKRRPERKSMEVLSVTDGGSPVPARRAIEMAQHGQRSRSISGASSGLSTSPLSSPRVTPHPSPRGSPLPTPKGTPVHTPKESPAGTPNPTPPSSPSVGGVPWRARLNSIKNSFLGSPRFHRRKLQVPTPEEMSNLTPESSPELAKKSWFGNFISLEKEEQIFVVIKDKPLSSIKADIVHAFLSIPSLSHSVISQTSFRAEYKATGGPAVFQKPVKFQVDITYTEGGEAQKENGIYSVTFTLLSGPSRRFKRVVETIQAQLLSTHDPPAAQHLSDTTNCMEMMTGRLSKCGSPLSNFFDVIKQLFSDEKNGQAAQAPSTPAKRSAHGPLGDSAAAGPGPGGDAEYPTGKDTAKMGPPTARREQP", "details": "derived from % inhibition at 1 μM", "procedure,_shortened": "as §1"}, "CHEK1 (CHK1)": {"target": "T3, CHEK1 (CHK1) (Homo sapiens, UniProt O14757)", "T3 construct": "purchased", "T3 sequence (O14757 1-476)": "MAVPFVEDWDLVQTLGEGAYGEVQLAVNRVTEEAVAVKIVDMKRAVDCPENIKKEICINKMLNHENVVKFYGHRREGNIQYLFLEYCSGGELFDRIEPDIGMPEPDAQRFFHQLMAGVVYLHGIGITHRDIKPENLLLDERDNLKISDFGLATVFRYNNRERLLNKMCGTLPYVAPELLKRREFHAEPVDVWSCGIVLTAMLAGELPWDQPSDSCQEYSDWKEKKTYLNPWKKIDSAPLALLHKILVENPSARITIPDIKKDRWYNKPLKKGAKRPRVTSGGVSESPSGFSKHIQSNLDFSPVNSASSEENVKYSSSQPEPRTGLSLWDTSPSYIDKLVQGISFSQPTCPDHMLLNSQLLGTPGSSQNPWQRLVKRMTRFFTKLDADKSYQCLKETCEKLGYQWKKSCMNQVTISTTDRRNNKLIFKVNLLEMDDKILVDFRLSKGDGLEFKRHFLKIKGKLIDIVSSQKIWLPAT", "details": "for IC50: derived from % inhibition at 1 μM", "procedure,_shortened": "as §1"}, "CSNK1D": {"target": "T4, CSNK1D (Homo sapiens, UniProt P48730)", "T4 construct": "purchased", "T4 sequence (P48730 whole entry, species assumed)": "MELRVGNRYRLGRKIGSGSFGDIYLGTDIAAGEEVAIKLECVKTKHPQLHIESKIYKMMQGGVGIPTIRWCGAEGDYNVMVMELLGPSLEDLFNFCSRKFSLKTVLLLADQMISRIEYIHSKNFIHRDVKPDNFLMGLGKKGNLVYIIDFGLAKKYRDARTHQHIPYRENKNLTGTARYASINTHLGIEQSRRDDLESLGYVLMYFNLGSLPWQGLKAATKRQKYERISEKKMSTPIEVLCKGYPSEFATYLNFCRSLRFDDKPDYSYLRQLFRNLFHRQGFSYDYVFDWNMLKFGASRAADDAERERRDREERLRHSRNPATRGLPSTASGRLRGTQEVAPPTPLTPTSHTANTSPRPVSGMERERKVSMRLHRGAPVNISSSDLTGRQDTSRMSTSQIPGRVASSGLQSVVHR", "details": "derived from % inhibition at 1 μM", "procedure,_shortened": "as §1"}, "MAPK13": {"target": "T5, MAPK13 (Homo sapiens, UniProt O15264)", "T5 construct": "purchased", "T5 sequence (O15264 1-365)": "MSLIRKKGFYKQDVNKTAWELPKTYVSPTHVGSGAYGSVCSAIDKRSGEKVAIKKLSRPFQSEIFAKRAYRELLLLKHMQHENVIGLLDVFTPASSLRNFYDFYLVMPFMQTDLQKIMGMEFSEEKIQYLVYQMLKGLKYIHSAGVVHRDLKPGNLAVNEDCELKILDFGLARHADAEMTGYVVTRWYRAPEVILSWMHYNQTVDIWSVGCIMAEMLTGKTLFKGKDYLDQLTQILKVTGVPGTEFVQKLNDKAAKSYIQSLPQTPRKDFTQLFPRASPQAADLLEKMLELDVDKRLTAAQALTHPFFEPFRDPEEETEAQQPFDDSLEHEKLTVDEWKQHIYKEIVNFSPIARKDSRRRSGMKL", "details": "derived from % inhibition at 1 μM", "procedure,_shortened": "as §1"}, "PAK4 (PAK-4)": {"target": "T6, PAK4 (PAK-4) (Homo sapiens, UniProt O96013)", "T6 construct": "purchased", "T6 sequence (O96013 whole entry, species assumed)": "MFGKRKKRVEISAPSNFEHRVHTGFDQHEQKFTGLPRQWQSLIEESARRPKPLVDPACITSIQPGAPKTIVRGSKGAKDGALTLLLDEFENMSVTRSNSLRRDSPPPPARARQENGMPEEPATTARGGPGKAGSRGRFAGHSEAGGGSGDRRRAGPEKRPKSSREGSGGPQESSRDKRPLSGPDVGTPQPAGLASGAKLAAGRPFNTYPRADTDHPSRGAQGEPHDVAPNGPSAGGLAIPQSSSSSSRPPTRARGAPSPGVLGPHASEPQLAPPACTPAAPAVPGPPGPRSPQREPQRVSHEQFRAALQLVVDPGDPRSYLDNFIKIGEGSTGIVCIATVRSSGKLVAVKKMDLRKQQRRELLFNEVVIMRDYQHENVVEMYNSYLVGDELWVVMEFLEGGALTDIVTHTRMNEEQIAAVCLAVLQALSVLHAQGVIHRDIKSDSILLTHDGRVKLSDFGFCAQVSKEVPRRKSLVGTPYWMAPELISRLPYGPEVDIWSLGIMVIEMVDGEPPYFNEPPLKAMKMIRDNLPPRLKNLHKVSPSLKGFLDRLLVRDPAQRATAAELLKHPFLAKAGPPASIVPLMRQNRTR", "details": "for IC50: derived from % inhibition at 1 μM", "procedure,_shortened": "as §1"}, "RPS6KA5": {"target": "T7, RPS6KA5 (Homo sapiens, UniProt O75582)", "T7 construct": "purchased", "T7 sequence (O75582 whole entry, species assumed)": "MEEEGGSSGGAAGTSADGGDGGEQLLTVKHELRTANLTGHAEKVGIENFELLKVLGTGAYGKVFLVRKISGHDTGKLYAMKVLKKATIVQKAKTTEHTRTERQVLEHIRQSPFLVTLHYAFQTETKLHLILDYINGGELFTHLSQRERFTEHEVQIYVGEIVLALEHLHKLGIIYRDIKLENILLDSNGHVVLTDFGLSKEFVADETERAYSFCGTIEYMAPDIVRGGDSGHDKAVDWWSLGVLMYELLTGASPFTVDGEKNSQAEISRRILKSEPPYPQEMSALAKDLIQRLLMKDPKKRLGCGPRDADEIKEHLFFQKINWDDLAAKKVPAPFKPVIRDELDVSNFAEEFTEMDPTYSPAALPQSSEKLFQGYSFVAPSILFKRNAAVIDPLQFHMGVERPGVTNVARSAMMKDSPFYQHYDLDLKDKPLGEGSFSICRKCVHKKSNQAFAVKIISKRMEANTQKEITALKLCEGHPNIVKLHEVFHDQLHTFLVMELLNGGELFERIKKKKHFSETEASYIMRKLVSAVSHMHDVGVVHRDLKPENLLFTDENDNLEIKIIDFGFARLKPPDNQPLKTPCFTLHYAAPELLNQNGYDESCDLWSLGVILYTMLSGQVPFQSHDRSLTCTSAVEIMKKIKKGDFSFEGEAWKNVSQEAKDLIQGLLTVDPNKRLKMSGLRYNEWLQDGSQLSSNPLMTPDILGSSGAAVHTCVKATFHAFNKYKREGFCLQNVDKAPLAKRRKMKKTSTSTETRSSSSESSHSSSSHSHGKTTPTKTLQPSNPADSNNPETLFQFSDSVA", "details": "derived from % inhibition at 1 μM", "procedure,_shortened": "as §1"}, "TBK1": {"target": "T8, TBK1 (Homo sapiens, UniProt Q9UHD2)", "T8 construct": "purchased", "T8 sequence (Q9UHD2 1-729)": "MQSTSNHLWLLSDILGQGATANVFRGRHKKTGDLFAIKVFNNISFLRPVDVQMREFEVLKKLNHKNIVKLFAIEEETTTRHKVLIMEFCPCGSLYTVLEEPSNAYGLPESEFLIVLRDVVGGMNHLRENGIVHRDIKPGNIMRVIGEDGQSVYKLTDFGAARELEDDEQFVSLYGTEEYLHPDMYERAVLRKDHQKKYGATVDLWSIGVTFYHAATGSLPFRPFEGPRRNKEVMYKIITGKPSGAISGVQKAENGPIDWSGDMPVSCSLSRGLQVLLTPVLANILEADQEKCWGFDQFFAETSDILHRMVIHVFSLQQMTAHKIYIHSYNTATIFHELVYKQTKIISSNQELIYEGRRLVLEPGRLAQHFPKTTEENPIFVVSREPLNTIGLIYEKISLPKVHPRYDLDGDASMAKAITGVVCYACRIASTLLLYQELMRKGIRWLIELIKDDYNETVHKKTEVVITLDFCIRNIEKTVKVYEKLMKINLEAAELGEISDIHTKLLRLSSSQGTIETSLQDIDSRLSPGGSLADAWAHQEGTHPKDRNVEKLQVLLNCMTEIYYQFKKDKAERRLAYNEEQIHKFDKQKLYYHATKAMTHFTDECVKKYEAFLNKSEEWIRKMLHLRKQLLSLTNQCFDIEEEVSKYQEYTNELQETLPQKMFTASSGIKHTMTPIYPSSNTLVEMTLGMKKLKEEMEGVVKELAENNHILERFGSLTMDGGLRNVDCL", "details": "derived from % inhibition at 1 μM", "procedure,_shortened": "as §1"}}}
{"smiles": "c1ccc(Cc2c[nH]c3ncsc23)cc1", "note": "[Compound A7, 6-benzyl-4H-pyrrolo[2,3-d]thiazole]", "values": [{"measurement": "IC50", "setting": "AURKB", "result": "1 to 10", "unit": "µM"}, {"measurement": "IC50", "setting": "BRSK2", "result": "> 1", "unit": "µM"}, {"measurement": "IC50", "setting": "CHEK1 (CHK1)", "result": "> 1", "unit": "µM"}, {"measurement": "IC50", "setting": "CSNK1D", "result": "1 to 10", "unit": "µM"}, {"measurement": "IC50", "setting": "MAPK13", "result": "1 to 10", "unit": "µM"}, {"measurement": "IC50", "setting": "PAK4 (PAK-4)", "result": "> 1", "unit": "µM"}, {"measurement": "IC50", "setting": "RPS6KA5", "result": "1 to 10", "unit": "µM"}, {"measurement": "IC50", "setting": "TBK1", "result": "> 1", "unit": "µM"}]}
{"smiles": "Nc1ncsc1C#Cc1cnc2[nH]ccc2c1", "note": "[Compound A22, 5-(1H-pyrrolo[2,3-b]pyridin-5-ylethynyl)thiazol-4-ylamine]", "values": [{"measurement": "IC50", "setting": "AURKB", "result": "10 to 100", "unit": "µM"}, {"measurement": "IC50", "setting": "BRSK2", "result": "> 1", "unit": "µM"}, {"measurement": "IC50", "setting": "CHEK1 (CHK1)", "result": "0.01 to 1", "unit": "µM"}, {"measurement": "remaining activity at 1 µM", "setting": "CHEK1 (CHK1); read-out: residual kinase activity CHK1", "result": 40, "unit": "%"}, {"measurement": "IC50", "setting": "CSNK1D", "result": "10 to 100", "unit": "µM"}, {"measurement": "IC50", "setting": "MAPK13", "result": "10 to 100", "unit": "µM"}, {"measurement": "IC50", "setting": "PAK4 (PAK-4)", "result": "0.01 to 1", "unit": "µM"}, {"measurement": "remaining activity at 1 µM", "setting": "PAK4 (PAK-4); read-out: residual kinase activity PAK-4", "result": 34, "unit": "%"}, {"measurement": "IC50", "setting": "RPS6KA5", "result": "10 to 100", "unit": "µM"}, {"measurement": "IC50", "setting": "TBK1", "result": "> 1", "unit": "µM"}]}
{"smiles": "CC(C)(C)OC(=O)Nc1nc(-c2ccncc2)sc1C#CCN1CCOCC1", "note": "[Compound A25, tert-butyl[5-(3-morpholin-4-ylprop-1-ynyl)-2-pyridin-4-ylthiazol-4-yl]-carbamate]", "values": [{"measurement": "IC50", "setting": "AURKB", "result": "> 1", "unit": "µM"}, {"measurement": "IC50", "setting": "BRSK2", "result": "> 1", "unit": "µM"}, {"measurement": "IC50", "setting": "CHEK1 (CHK1)", "result": "10 to 100", "unit": "µM"}, {"measurement": "IC50", "setting": "CSNK1D", "result": "> 1", "unit": "µM"}, {"measurement": "IC50", "setting": "MAPK13", "result": "> 1", "unit": "µM"}, {"measurement": "IC50", "setting": "PAK4 (PAK-4)", "result": "> 1", "unit": "µM"}, {"measurement": "IC50", "setting": "RPS6KA5", "result": "10 to 100", "unit": "µM"}, {"measurement": "IC50", "setting": "TBK1", "result": "10 to 100", "unit": "µM"}]}
{"smiles": "CC(C)(C)OC(=O)Nc1ncsc1C#CCN1C(=O)c2ccccc2C1=O", "note": "[Compound A26, tert-butyl{5-[3-(1,3-dioxo-1,3-dihydroisoindol-2-yl)prop-1-ynyl]-thiazol-4-yl}carbamate]", "values": [{"measurement": "IC50", "setting": "AURKB", "result": "> 1", "unit": "µM"}, {"measurement": "IC50", "setting": "BRSK2", "result": "> 1", "unit": "µM"}, {"measurement": "IC50", "setting": "CHEK1 (CHK1)", "result": "10 to 100", "unit": "µM"}, {"measurement": "IC50", "setting": "CSNK1D", "result": "> 1", "unit": "µM"}, {"measurement": "IC50", "setting": "MAPK13", "result": "10 to 100", "unit": "µM"}, {"measurement": "IC50", "setting": "PAK4 (PAK-4)", "result": "1 to 10", "unit": "µM"}, {"measurement": "IC50", "setting": "RPS6KA5", "result": "> 1", "unit": "µM"}, {"measurement": "IC50", "setting": "TBK1", "result": "> 1", "unit": "µM"}]}
{"smiles": "Nc1ncsc1C#Cc1cccc(O)c1", "note": "[Compound A27, 3-(4-aminothiazol-5-ylethynyl)phenol]", "values": [{"measurement": "IC50", "setting": "AURKB", "result": "10 to 100", "unit": "µM"}, {"measurement": "IC50", "setting": "BRSK2", "result": "10 to 100", "unit": "µM"}, {"measurement": "IC50", "setting": "CHEK1 (CHK1)", "result": "10 to 100", "unit": "µM"}, {"measurement": "IC50", "setting": "CSNK1D", "result": "1 to 10", "unit": "µM"}, {"measurement": "IC50", "setting": "MAPK13", "result": "1 to 10", "unit": "µM"}, {"measurement": "IC50", "setting": "PAK4 (PAK-4)", "result": "> 1", "unit": "µM"}, {"measurement": "IC50", "setting": "RPS6KA5", "result": "10 to 100", "unit": "µM"}, {"measurement": "IC50", "setting": "TBK1", "result": "> 1", "unit": "µM"}]}
